The record followed here is ChEMBL document CHEMBL3751730, “Synthesis and in vitro antitumor evaluation of dihydroartemisinin-cinnamic acid ester derivatives” (Eur J Med Chem, 2016).

The subject of one assay is A549. The experiment in a line: Antiproliferative activity against human A549 cells after 72 hrs by MTT assay. As to conditions: A549, 72 h. The class given is functional, cell-based.
Assay [1] in a line: Antiproliferative activity against human PC3 cells after 72 hrs by MTT assay. It is filed as functional, cell-based. Conditions: PC-3, 72 h. (Formazan colour is commonly taken as a measure of viable cells.)
Assay [2] is described as follows: Antiproliferative activity against human MDA-MB-435S cells after 72 hrs by MTT assay. It is filed as functional, cell-based.
A short description of assay [3]: Antiproliferative activity against human SGC7901 cells after 72 hrs by MTT assay. Conditions: SGC-7901, 72 h. It is filed as functional, cell-based.
A short description of assay [4]: Selectivity index, ratio of IC50 for human L02 cells to IC50 for human A549 cells. It is filed as functional.
The nature of assay [5]: Cytotoxicity against human L02 cells after 72 hrs by MTT assay. It is filed as cell-based. Conditions: L02, 72 h.

Bounds are passed on as bounds.

Regarding `COc1ccccc1/C=C/C(=O)O[C@@H]1O[C@@H]2O[C@@]3(C)CC[C@H]4[C@H](C)[C@H](OC(=O)/C=C/c5ccccc5OC)C[C@@H]([C@H]1C)[C@@]24OO3`, the IC50 – broadly, the concentration needed to halve the response being measured – with A549 is 2.55 µM; in assay [1] it was 11.5 µM; in assay [2], 52.3 µM; in assay [3], 46.4 µM.
For `COc1ccc(/C=C/C(=O)O[C@@H]2O[C@@H]3O[C@@]4(C)CC[C@H]5[C@H](C)[C@H](O)C[C@@H]([C@H]2C)[C@@]35OO4)c(OC)c1OC` the same measures were 40.1 µM, more than 100 µM, 69.9 µM and more than 100 µM.
Turning to `COc1ccc(/C=C/C(=O)O[C@@H]2O[C@@H]3O[C@@]4(C)CC[C@H]5[C@H](C)[C@H](OC(=O)/C=C/c6ccc(OC)cc6)C[C@@H]([C@H]2C)[C@@]35OO4)cc1`, the half-inhibitory concentration (IC50) with A549 is 7.01 µM; in assay [1], 9.58 µM; in assay [2], 41.5 µM; in assay [3], 28.3 µM.
Regarding `C[C@@H]1[C@H](O)C[C@H]2[C@@H](C)[C@H](OC(=O)/C=C/c3cccc(Cl)c3)O[C@@H]3O[C@@]4(C)CC[C@@H]1[C@]32OO4`, the IC50 with A549 was more than 100 µM; in assay [1], more than 100 µM; in assay [2], 95.9 µM; in assay [3] it was more than 100 µM.
With `C[C@@H]1[C@H](OC(=O)CCc2ccccc2)C[C@H]2[C@@H](C)[C@H](OC(=O)CCc3ccccc3)O[C@@H]3O[C@@]4(C)CC[C@@H]1[C@]32OO4`, the IC50 in the assay on A549 is 43.2 µM; in assay [1] it was 20.5 µM; in assay [2] it was more than 100 µM; in assay [3], 87.8 µM.
With `C[C@@H]1[C@H](O)C[C@H]2[C@@H](C)[C@H](OC(=O)/C=C/c3ccccc3F)O[C@@H]3O[C@@]4(C)CC[C@@H]1[C@]32OO4`, the IC50 in the assay on A549 is 92.7 µM; in assay [1], 89.6 µM; in assay [2], 47.1 µM; in assay [3], more than 100 µM.
On to `C[C@@H]1[C@H](O)C[C@H]2[C@@H](C)[C@H](OC(=O)/C=C/c3ccccc3Cl)O[C@@H]3O[C@@]4(C)CC[C@@H]1[C@]32OO4`, for which the IC50 (in the assay on A549; in assay [1]; in assay [2]; in assay [3]) was more than 100 µM in each case.
In the case of `C[C@@H]1[C@H](O)C[C@H]2[C@@H](C)[C@H](OC(=O)/C=C/c3ccc(Br)cc3)O[C@@H]3O[C@@]4(C)CC[C@@H]1[C@]32OO4`, the IC50 in the assay with A549 was more than 100 µM; in assay [1], more than 100 µM; in assay [2], 84.5 µM; in assay [3], more than 100 µM.
For `COc1ccc(/C=C/C(=O)O[C@@H]2O[C@@H]3O[C@@]4(C)CC[C@H]5[C@H](C)[C@H](O)C[C@@H]([C@H]2C)[C@@]35OO4)cc1`, the IC50 is more than 100 µM in the assay on A549, more than 100 µM in assay [1], 87.1 µM in assay [2] and more than 100 µM in assay [3].
Take `COc1ccc(/C=C/C(=O)O[C@@H]2O[C@@H]3O[C@@]4(C)CC[C@H]5[C@H](C)[C@H](O)C[C@@H]([C@H]2C)[C@@]35OO4)cc1OC`: the IC50 is 28.9 µM in the assay on A549, more than 100 µM in assay [1], 61 µM in assay [2] and more than 100 µM in assay [3].
Consider `C[C@@H]1[C@H](OC(=O)/C=C/c2ccc([N+](=O)[O-])cc2)C[C@H]2[C@@H](C)[C@H](OC(=O)/C=C/c3ccc([N+](=O)[O-])cc3)O[C@@H]3O[C@@]4(C)CC[C@@H]1[C@]32OO4`, for which the IC50 is more than 100 µM in the assay on A549, 10.7 µM in assay [1], more than 100 µM in assay [2] and 18.8 µM in assay [3].
For `O=c1[nH]cc(F)c(=O)[nH]1` [FLUOROURACIL], the IC50 in assay [1] came out at 42.5 µM; in assay [2], 15.2 µM; in assay [5] it was 25.9 µM; in assay [3], 11.9 µM. Besides, in assay [4], the “Ratio IC50” value worked out at 3.83.
As to `C[C@@H]1[C@H](OC(=O)/C=C/c2cccc(Cl)c2)C[C@H]2[C@@H](C)[C@H](OC(=O)/C=C/c3cccc(Cl)c3)O[C@@H]3O[C@@]4(C)CC[C@@H]1[C@]32OO4`, the IC50 in the assay with A549 is 2.72 µM; in assay [1], 11.1 µM; in assay [2], 22.4 µM; in assay [3], 12 µM.
With `C[C@@H]1[C@H](OC(=O)/C=C/c2c(Cl)cccc2Cl)C[C@H]2[C@@H](C)[C@H](OC(=O)/C=C/c3c(Cl)cccc3Cl)O[C@@H]3O[C@@]4(C)CC[C@@H]1[C@]32OO4`, the IC50 with A549 was more than 100 µM; in assay [1], more than 100 µM; in assay [2], more than 100 µM; in assay [3] it was 60.8 µM.
In the case of `C[C@@H]1[C@H](O)C[C@H]2[C@@H](C)[C@H](OC(=O)CCc3ccccc3)O[C@@H]3O[C@@]4(C)CC[C@@H]1[C@]32OO4`, the IC50 (in the assay on A549; in assay [1]; in assay [2]; in assay [3]) was more than 100 µM in each case.
With `C[C@@H]1[C@H](OC(=O)/C=C/c2ccccc2F)C[C@H]2[C@@H](C)[C@H](OC(=O)/C=C/c3ccccc3F)O[C@@H]3O[C@@]4(C)CC[C@@H]1[C@]32OO4`, the IC50 in the assay on A549 was 4.66 µM; in assay [1], 12.5 µM; in assay [2], 18.8 µM; in assay [3], more than 100 µM.
Take `COc1ccccc1/C=C/C(=O)O[C@@H]1O[C@@H]2O[C@@]3(C)CC[C@H]4[C@H](C)[C@H](O)C[C@@H]([C@H]1C)[C@@]24OO3`: the IC50 was more than 100 µM in the assay with A549, 74.9 µM in assay [1], 74.1 µM in assay [2] and more than 100 µM in assay [3].
For `C[C@@H]1[C@H](OC(=O)/C=C/c2ccc(Br)cc2)C[C@H]2[C@@H](C)[C@H](OC(=O)/C=C/c3ccc(Br)cc3)O[C@@H]3O[C@@]4(C)CC[C@@H]1[C@]32OO4`, the concentration for half-maximal inhibition (IC50) in the assay on A549 is 35.3 µM; in assay [1], 19.7 µM; in assay [2], more than 100 µM; in assay [3], 35.8 µM.
For the molecule `C[C@@H]1[C@H](OC(=O)/C=C/c2ccc(C(F)(F)F)cc2)C[C@H]2[C@@H](C)[C@H](OC(=O)/C=C/c3ccc(C(F)(F)F)cc3)O[C@@H]3O[C@@]4(C)CC[C@@H]1[C@]32OO4`, the IC50 is 5.08 µM in the assay with A549, 43.5 µM in assay [1], 67.7 µM in assay [2] and 39.4 µM in assay [3].
For the molecule `C[C@@H]1[C@H](O)C[C@H]2[C@@H](C)[C@H](OC(=O)/C=C/c3ccc(C(F)(F)F)cc3)O[C@@H]3O[C@@]4(C)CC[C@@H]1[C@]32OO4`, the IC50 in the assay with A549 was more than 100 µM; in assay [1], more than 100 µM; in assay [2] it was more than 100 µM; in assay [3], 85.7 µM.
`Cc1ccc(/C=C/C(=O)O[C@@H]2O[C@@H]3O[C@@]4(C)CC[C@H]5[C@H](C)[C@H](O)C[C@@H]([C@H]2C)[C@@]35OO4)cc1`: the IC50 (with A549; in assay [1]; in assay [2]; in assay [3]) was more than 100 µM in each case.
As to `C[C@@H]1[C@H](O)C[C@H]2[C@@H](C)[C@H](OC(=O)/C=C/c3ccccc3)O[C@@H]3O[C@@]4(C)CC[C@@H]1[C@]32OO4`, the IC50 in the assay with A549 was more than 100 µM; in assay [1], more than 100 µM; in assay [2], 76.3 µM; in assay [3] it was more than 100 µM.
In the case of `C[C@@H]1[C@H](O)C[C@H]2[C@@H](C)[C@H](OC(=O)/C=C/c3ccc([N+](=O)[O-])cc3)O[C@@H]3O[C@@]4(C)CC[C@@H]1[C@]32OO4`, the IC50 (in the assay with A549; in assay [1]; in assay [2]; in assay [3]) was more than 100 µM throughout.
Consider `C[C@@H]1[C@H](OC(=O)/C=C/c2ccc(F)cc2)C[C@H]2[C@@H](C)[C@H](OC(=O)/C=C/c3ccc(F)cc3)O[C@@H]3O[C@@]4(C)CC[C@@H]1[C@]32OO4`, for which the half-maximal inhibitory concentration (IC50) (in the assay with A549; in assay [1]; in assay [2]; in assay [3]) was more than 100 µM in each case.
For `COc1cccc(/C=C/C(=O)O[C@@H]2O[C@@H]3O[C@@]4(C)CC[C@H]5[C@H](C)[C@H](O)C[C@@H]([C@H]2C)[C@@]35OO4)c1`, the IC50 (in the assay with A549; in assay [1]; in assay [2]; in assay [3]) was more than 100 µM throughout.
Take `C[C@@H]1[C@H](O)C[C@H]2[C@@H](C)[C@H](OC(=O)/C=C/c3ccc(F)cc3)O[C@@H]3O[C@@]4(C)CC[C@@H]1[C@]32OO4`: the half-inhibitory concentration (IC50) (with A549; in assay [1]; in assay [2]; in assay [3]) was more than 100 µM in each case.
With `C[C@@H]1[C@H](O)C[C@H]2[C@@H](C)[C@H](OC(=O)/C=C/c3ccc(Cl)cc3)O[C@@H]3O[C@@]4(C)CC[C@@H]1[C@]32OO4`, the IC50 with A549 was more than 100 µM; in assay [1], more than 100 µM; in assay [2] it was 98.6 µM; in assay [3], more than 100 µM.
In the case of `C[C@@H]1[C@H](OC(=O)/C=C/c2ccccc2Cl)C[C@H]2[C@@H](C)[C@H](OC(=O)/C=C/c3ccccc3Cl)O[C@@H]3O[C@@]4(C)CC[C@@H]1[C@]32OO4`, the IC50 in the assay on A549 is 96.2 µM; in assay [1], 76.2 µM; in assay [2], more than 100 µM; in assay [3] it was more than 100 µM.
As to `Cc1ccc(/C=C/C(=O)O[C@@H]2O[C@@H]3O[C@@]4(C)CC[C@H]5[C@H](C)[C@H](OC(=O)/C=C/c6ccc(C)cc6)C[C@@H]([C@H]2C)[C@@]35OO4)cc1`, the IC50 with A549 is more than 100 µM; in assay [1], 87.2 µM; in assay [2], more than 100 µM; in assay [3], more than 100 µM.
